Measurements: patent US20260159525A1, “TRICYCLIC HETEROCYCLES” (Merck Patent GmbH, priority 2021, published 2026)

Tests used:
YAP-TEAD interaction = assay: SK-HEP-1 reporter assay (8x TEAD responsive elements driving NanoLuc luciferase); assay type: cell-based; settings: Homo sapiens, SK-HEP1, SK-HEP-1 cells, 24 hour incubation
Method: To identify inhibitors of YAP-TEAD interaction, 8× TEAD responsive elements driving the NanoLuc® luciferase gene were stably integrated into SK-HEP-1 cells (ECACC #: 91091816).
For the assay, cells were treated in duplicates with the test compounds in a 10-point dose, with the top concentration starting at 30 μM (final concentration in assay). After a 24 hour incubation at 37° C., 95% rH, and 5% CO2, a luciferase substrate/lysis reagent mix (NanoGlo™, Promega) was added to the cells, allowing the quantification of cellular luciferase activity.
Cell Media: The cells were cultured in the following media: MEM, +10% FBS, +1× GlutaMAX, +1 mM Sodium-Pyruvate, +100 μM Non-essential amino acids, +0.1 mg/ml Hygromycin. The media used for the assay was: MEM (w/o Phenol Red), +10% FBS, +1× GlutaMAX, +1 mM Sodium-Pyruvate, +100 μM Non-essential amino acids, +0.5% Pen/Strep
(§1) Reagents: The reagents used are listed below:
(§2) Cell culture: The cells were examined using an inverted microscope to check for health and cell density. To dissociate adherent cells, the monolayer of cells was washed once with pre-warmed PBS. After removing the PBS, 3 ml pre-warmed Accutase® was added to a F75 flask, dispersed evenly and the flask was allowed to sit in incubator for ˜4-5 minutes.
(§3) When a single cell suspension was obtained, 7 ml of prewarmed growth media was added and resuspended with the cells. The cell suspension was transferred to a sterile 15 ml conical centrifuge tube, and spun for 5 min at 300×g, RT. The supernatant was discarded and the pellet was resuspended in 10 ml of pre-warmed growth media.
(§4) The total cell count was determined, and 20 μl of the desired cell number was added to each well of a 384 well plate using a Multidrop Combi. The plates were then incubated for 24 hours at 37° C., 95% rH, and 5% CO2.
(§5) Compound treatment: 24 hours after seeding, the cells were treated with compounds.
(§6) A 1:333 dilution of compounds, diluted in DMSO, was made to get a final concentration of 0.3% DMSO per well. To transfer the compounds to the assay plate, 120 nl was shot from Labcyte low dead volume plates to the cell plates containing 20 μl media/well with the ECHO 555 liquid handling system. After treatment, the cells were fed with 20 μl fresh pre-warmed assay media using a Multidrop combi.
The assay plates were then incubated for another 24 h at 37° C., 95% rH, and 5% CO2.
Luciferase readout: 24 h after treatment, the plates were taken out of the incubator and were allowed to equilibrate to RT. 30 μl of NanoGlo® reagent was added to the plates in the dark. Plates were shaken for 20 min on a Teleshake (˜1500 rpm) in the dark. The luminescence was then measured using an EnVision microplate reader. The IC50 values were generated using Genedata Screener®.

NCI-H226 cells = assay: Viability assay in NCI-H226 (Yap-dependent) cells, CyQUANT; assay type: cell-based; settings: Homo sapiens, NCI-H226 YAP dependent cell line, 96 hour incubation
Method: Viability Assay in NCI-H226 (Yap-Dependent) and SW620 Yap KO (Yap Independent) Cells
The ability of YAP-TEAD inhibitors to inhibit tumor cell growth was evaluated using two different cell lines: NCI-H226, which is a YAP dependent cell line, and SW620 cells, where YAP and TAZ were knocked out using CRISPR to generate a YAP independent cell line.
For the assay, cells were treated in duplicates with the test compounds in a 10-point dose, 1:3 dilution steps, with the top concentration starting at 30 μM (final concentration in assay). After a 96 hour incubation at 37° C., 95% rH, and 5% CO2, a cell-permeant DNA-binding dye that stains only healthy cells (CyQUANT®, Promega) was added to the cells, allowing the quantification of cell viability.
Cell Media: The NCI-H226 cells were cultured in the following media: RPMI 1640, +10% FBS, +1× GlutaMAX, +10 mM HEPES, +0.5% Pen/Strep. The SW620-KO cells were cultured in the following media: DMEM/F-12, +10% FBS, +1× GlutaMAX, +10 mM HEPES, +0.5% Pen/Strep.
as §1
as §2, with “health,” for “health and”, “density, etc.” for “density.”, “Accutase” for “Accutase®”
as §3, §4, §5, §6
The assay plates were then incubated for 96 h at 37° C., 95% rH, and 5% CO2.
96 h after treatment 30 μl of CyQuant® reagent was added to the assay plates using a Multidrop combi in the dark. The plates were then incubated for 1 hour at 37° C., 95% rH and 5% CO2. Thereafter, the assay plates were removed from the incubator and allowed to equilibrate to RT for 30 min in the dark without lid. Finally, they were measured using an EnVision microplate reader with a FITC bottom read program.

[1] = number, or n.d. (x) = not detectable below threshold x

Structure (SMILES) | IC50 (YAP-TEAD interaction; group symbols) [nM] | IC50 (NCI-H226 cells; group symbols) [nM] | IC50 (YAP-TEAD interaction; [1]) [nM] | IC50 (NCI-H226 cells; printed number) [nM]
Cn1cc2c3sc(C(=O)O)cc3n(-c3ccc(C(F)(F)F)cc3)c2n1 [Compound 2, 10-methyl-7-[4-(trifluoromethyl)phenyl]-3-thia-7,9,10-triazatricyclo[6.3.0.0^2,6]undeca-1(11),2(6),4,8-tetraene-4-carboxylic acid] | 10 to 100 | 100 to 1000 |  | 
Cn1cc2c3cc(C(=O)NCCOCCOCCNC(=O)OC(C)(C)C)sc3n(-c3ccc(C(F)(F)F)cc3)c2n1 [Compound 88, tert-butyl N-(2-{2-[2-({4-methyl-7-[4-(trifluoromethyl)phenyl]-9-thia-4,5,7-triazatricyclo[6.3.0.0^2,6]undeca-1(8),2,5,10-tetraen-10-yl}formamido)ethoxy]ethoxy}ethyl)carbamate] |  |  | > 30000 | 88
CNC(=O)c1cc2c3cn(C)nc3n(-c3ccc(C(F)(F)F)cc3)c2s1 [Compound 32, N,4-dimethyl-7-[4-(trifluoromethyl)phenyl]-9-thia-4,5,7-triazatricyclo[6.3.0.0^2,6]undeca-1(8),2,5,10-tetraene-10-carboxamide] | 10 to 100 | 1 to 100 |  | 
COCC[C@@H](CO)NC(=O)c1cc2c3cn(C)nc3n(-c3ccc(C(F)(F)F)cc3)c2s1 (single isomer, unassigned) [Compound 59] |  | 100 to 1000 | > 300 | 
Cn1nc2c3sc(C(=O)NC(CO)c4ccccn4)cc3n(-c3ccc(C(F)(F)F)cc3)c2n1 (stereo not shown) [Compound 4, N-[2-hydroxy-1-(pyridin-2-yl)ethyl]-4-methyl-7-[4-(trifluoromethyl)phenyl]-11-thia-3,4,5,7-tetraazatricyclo[6.3.0.0^2,6]undeca-1(8),2,5,9-tetraene-10-carboxamide] | > 10000 | 1000 to 10000 |  | 
Cn1cc2c3cc(C(=O)N[C@H](CCO)c4ccccn4)sc3n(-c3ccc(C(F)(F)F)cc3)c2n1 (single isomer, unassigned) [Compound 90] |  |  |  | 1500
Cn1cc2c3cc(C(=O)N=S(C)(C)=O)sc3n(-c3ccc(C(F)(F)F)cc3)c2n1 [Compound 34, N-[dimethyl(oxo)-λ^6-sulfanylidene]-4-methyl-7-[4-(trifluoromethyl)phenyl]-9-thia-4,5,7-triazatricyclo[6.3.0.0^2,6]undeca-1(8),2,5,10-tetraene-10-carboxamide] | 100 to 10000 | 100 to 1000 |  | 
Cn1cc2c3cc(C(=O)N=[S@@](C)(=O)CCCO)sc3n(-c3ccc(C(F)(F)F)cc3)c2n1 (single isomer, unassigned) [Compound 61] |  | 100 to 1000 | > 9500 | 
Cn1nc2c3cc(C(=O)N[C@H](CO)c4ccccn4)sc3n(-c3ccc(C(F)(F)F)cc3)c2n1 [Compound 109, N-[(1S)-2-hydroxy-1-(pyridin-2-yl)ethyl]-4-methyl-7-[4-(trifluoromethyl)phenyl]-9-thia-3,4,5,7-tetraazatricyclo[6.3.0.0^2,6]undeca-1(8),2,5,10-tetraene-10-carboxamide] | 100 to 10000 |  |  | 
Cn1cc2c3cc(C(=O)O)sc3n(-c3ccc(C(F)(F)F)cn3)c2n1 [Compound 53, 4-methyl-7-[5-(trifluoromethyl)pyridin-2-yl]-9-thia-4,5,7-triazatricyclo[6.3.0.0^2,6]undeca-1(8),2,5,10-tetraene-10-carboxylic acid] | 1 to 10 |  |  | 
Cn1ccc(C(CO)NC(=O)c2cc3c4cn(C)nc4n(-c4ccc(C(F)(F)F)cn4)c3s2)n1 (stereo not shown) [Compound 116, N-[2-hydroxy-1-(1-methyl-1H-pyrazol-3-yl)ethyl]-4-methyl-7-[5-(trifluoromethyl)pyridin-2-yl]-9-thia-4,5,7-triazatricyclo[6.3.0.0^2,6]undeca-1(8),2,5,10-tetraene-10-carboxamide] |  |  | > 30000 | 
CC(=O)NCCOCCOCCNC(=O)c1cc2c3cn(C)nc3n(-c3ccc(C(F)(F)F)cc3)c2s1 [Compound 73, N-(2-{2-[2-({4-methyl-7-[4-(trifluoromethyl)phenyl]-9-thia-4,5,7-triazatricyclo[6.3.0.0^2,6]undeca-1(8),2,5,10-tetraen-10-yl}formamido)ethoxy]ethoxy}ethyl)acetamide] |  |  | > 3000 | 
